Data from ChEMBL document CHEMBL1268834, “Expansion of SAR studies on triaryl bis sulfone cannabinoid CB2 receptor ligands” (Bioorg Med Chem Lett, 2010).

Legend:
Cannabinoid receptor 2 = Cannabinoid receptor 2 (Homo sapiens, UniProt P34972); test: Inhibition of beta-arrestin binding to recombinant cannabinoid CB2 receptor
[1] = Selectivity ratio of Ki for recombinant cannabinoid CB1 receptor to Ki for recombinant cannabinoid CB2 receptor
[2] = AUC in rat at 10 mg/kg; format: ADME, organism-based; set-up: dose 10 mg/kg; conditions: plasma

Chain of Cannabinoid receptor 2 (P34972 whole entry): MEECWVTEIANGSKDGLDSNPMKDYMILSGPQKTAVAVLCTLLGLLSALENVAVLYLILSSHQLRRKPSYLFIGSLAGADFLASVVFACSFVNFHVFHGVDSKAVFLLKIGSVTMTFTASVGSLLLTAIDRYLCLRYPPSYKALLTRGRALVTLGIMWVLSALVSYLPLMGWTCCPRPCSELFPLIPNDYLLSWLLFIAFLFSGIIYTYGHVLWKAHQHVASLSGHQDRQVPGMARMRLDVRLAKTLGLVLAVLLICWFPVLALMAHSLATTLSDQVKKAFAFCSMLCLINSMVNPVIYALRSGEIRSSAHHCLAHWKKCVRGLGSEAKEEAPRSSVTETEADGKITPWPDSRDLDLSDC

| Structure (SMILES) | Ki (Cannabinoid receptor 2) [nM] | Ratio Ki [1] | AUC [2] [µM·h] |
| --- | --- | --- | --- |
| O=S(=O)(c1ccccc1F)c1ncccc1S(=O)(=O)N1CCC(CNS(=O)(=O)C(F)(F)F)CC1 | 790 | 126 | – |
| CC(C)(NS(=O)(=O)C(F)(F)F)C1CCN(S(=O)(=O)c2cc3ccccc3n2S(=O)(=O)c2ccccc2F)CC1 | 171 | 171 | – |
| CCCC1(CNS(=O)(=O)C(F)(F)F)CCN(S(=O)(=O)c2cc3ccccc3n2S(=O)(=O)c2ccccn2)CC1 | 1.6 | 26400 | 17.6 |
| C[C@@H]1CN(S(=O)(=O)c2cc3ccccc3n2S(=O)(=O)c2ccccc2F)CC[C@@H]1CNS(=O)(=O)C(F)(F)F | 1.5 | 6670 | – |
| CC[C@]1(CNS(=O)(=O)C(F)(F)F)CCN(S(=O)(=O)c2cc3ccccc3n2S(=O)(=O)c2ccccc2F)C[C@H]1C | 3.1 | 630 | – |
| O=S(=O)(c1cc2ccccc2n1S(=O)(=O)c1ccccc1F)N1CCC2(CC(NS(=O)(=O)C(F)(F)F)C2)C1 (configuration not stated) | 452 | 117 | – |
| CC(C)C1(CNS(=O)(=O)C(F)(F)F)CCCN(S(=O)(=O)c2cc3ccccc3n2S(=O)(=O)c2ccccc2F)C1 (configuration not stated) | 78 | 24 | – |
| O=S(=O)(c1cc2ccccc2n1S(=O)(=O)c1cccnc1)N1CCC(CNS(=O)(=O)C(F)(F)F)CC1 | 41 | 139 | – |
| C[C@H]1C[C@H](CNS(=O)(=O)C(F)(F)F)CCN1S(=O)(=O)c1cc2ccccc2n1S(=O)(=O)c1ccccc1F | 16 | 334 | – |
| O=S(=O)(c1cc2ccccc2n1S(=O)(=O)c1ccccc1F)N1CCCC(CCNS(=O)(=O)C(F)(F)F)C1 (configuration not stated) | 258 | 3 | – |
| O=S(=O)(c1cc2ccccc2n1S(=O)(=O)c1ccccc1F)N1CCC(O)(CNS(=O)(=O)C(F)(F)F)CC1 | 0.2 | 4380 | – |
| Cn1c(S(=O)(=O)c2ccccc2F)c(S(=O)(=O)N2CCC(CNS(=O)(=O)C(F)(F)F)CC2)c2ccccc21 | 70 | 364 | – |
| CC1(C)CN(S(=O)(=O)c2cc3ccccc3n2S(=O)(=O)c2ccccc2F)CCC1CNS(=O)(=O)C(F)(F)F (configuration not stated) | 4.2 | 245 | – |
| C[C@@H](NS(=O)(=O)C(F)(F)F)c1ccc(S(=O)(=O)c2cc3ccccc3n2S(=O)(=O)c2ccccc2F)cc1 | 7.5 | 1340 | – |
| O=S(=O)(c1ccccc1F)c1occc1S(=O)(=O)N1CCC(CNS(=O)(=O)C(F)(F)F)CC1 | 1.4 | 4520 | – |
| O=S(=O)(c1cc2ccccc2n1S(=O)(=O)c1ccccn1)N1CCC(CNS(=O)(=O)C(F)(F)F)CC1 | 0.9 | 9180 | – |

Next, values leading:

| Ki (Cannabinoid receptor 2) [nM] | Ratio Ki [1] | AUC [2] [µM·h] | Structure (SMILES) |
| --- | --- | --- | --- |
| 1.8 | 2520 | – | CCCC1(CNS(=O)(=O)C(F)(F)F)CCN(S(=O)(=O)c2cc3ccccc3n2S(=O)(=O)c2ccccc2F)CC1 |
| 4.4 | 2690 | – | C[C@@H](NS(=O)(=O)C(F)(F)F)c1ccc(S(=O)(=O)c2ccoc2S(=O)(=O)c2ccccc2F)cc1 |
| 0.4 | 2800 | 3.77 | CCC1(CNS(=O)(=O)C(F)(F)F)CCN(S(=O)(=O)c2cc3cc(F)ccc3n2S(=O)(=O)c2ccccc2F)CC1 |
| 0.38 | 9250 | – | O=S(=O)(c1cc2ccccc2n1S(=O)(=O)c1ccccc1F)N1CCC(CNS(=O)(=O)C(F)(F)F)CC1 |
| 0.4 | 3500 | 4.56 | O=S(=O)(c1cc2ccccc2n1S(=O)(=O)c1ccccn1)N1CCC2(CC1)C[C@@H]2NS(=O)(=O)C(F)(F)F |
| – | 413 | – | O=S(=O)(c1cc2ccccc2n1S(=O)(=O)c1ccccc1F)N1CCC2(CC1)C[C@@H]2NS(=O)(=O)C(F)(F)F |
| 8430 | 12 | – | O=S(=O)(c1cc2ccccc2n1S(=O)(=O)c1ccccc1F)N1CCC2(CC1)CN(S(=O)(=O)C(F)(F)F)C2 |
| 249 | 11 | – | O=S(=O)(c1cc2ccccc2n1S(=O)(=O)c1ccccc1F)N1CC(CCNS(=O)(=O)C(F)(F)F)C1 |
| 8.4 | 962 | – | C[C@@H](NS(=O)(=O)C(F)(F)F)c1ccc(S(=O)(=O)n2cccc2S(=O)(=O)c2ccccc2F)cc1 |
| 0.35 | 6720 | – | CC1(CNS(=O)(=O)C(F)(F)F)CCN(S(=O)(=O)c2cc3ccccc3n2S(=O)(=O)c2ccccc2F)CC1 |
| 23 | 126 | – | CN(C)c1ncccc1S(=O)(=O)n1c(S(=O)(=O)N2CCC(CNS(=O)(=O)C(F)(F)F)CC2)cc2ccccc21 |
| 9 | 279 | – | O=S(=O)(c1cc2ccccc2n1S(=O)(=O)c1ccccc1F)N1C[C@@H]2[C@@H](CNS(=O)(=O)C(F)(F)F)[C@@H]2C1 |
| 0.8 | 5160 | – | COc1ccc2c(c1)cc(S(=O)(=O)N1CCC(CNS(=O)(=O)C(F)(F)F)CC1)n2S(=O)(=O)c1ccccc1F |
| 2.5 | 3200 | 3.19 | COC1(CNS(=O)(=O)C(F)(F)F)CCN(S(=O)(=O)c2cc3cccnc3n2S(=O)(=O)c2ccccc2F)CC1 |
| 0.5 | 2260 | – | C[C@@H]1CN(S(=O)(=O)c2cc3ccccc3n2S(=O)(=O)c2ccccc2F)CC[C@H]1CNS(=O)(=O)C(F)(F)F |
| 0.4 | 2080 | – | CC(NS(=O)(=O)C(F)(F)F)C1CCN(S(=O)(=O)c2cc3ccccc3n2S(=O)(=O)c2ccccc2F)CC1 (configuration not stated) |
